Measurements reported in PubChem BioAssay AID2060910 (Molecular Pharmacology Branch, DTP, NCI, 2025).

Test system: 242566-281-R-J2-PDC complex spheroid viability
Experiment: Anticancer human tumor 242566-281-R-J2-PDC patient-derived pancreatic carcinoma cell line growth inhibition [RAS]
Settings: for IC50: curve of first compound; for viability, T/C: stronger effect = lower value; active means viability on the fitted dose curve at most 10% of control; inactive means the rest
Summary of the method: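 Tumour cells grown as complex spheroids with HUVEC endothelial cells and mesenchymal stem cells, treated with RAS pathway inhibitor combinations. Each agent spans half-log steps from near clinical Cmax, or 10 microM where Cmax is unknown.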
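Further: spheroids exposed to compound for 7 days before readout.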
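Wherever viability, T/C is given: 100% = DMSO vehicle control wells.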

CC1(O)CCCC1n1c(=O)c(C(F)F)cc2cnc(NC3CCN(S(C)(=O)=O)CC3)nc21 (centres undefined) + C#Cc1c(F)ccc2cc(O)cc(-c3ncc4c(N5CC6CCC(C5)N6)nc(OCC56CCCN5CC(F)C6)nc4c3F)c12
4.97 µM: IC50 (second compound 1 µM)
6.91 µM: IC50 (second compound 0.316 µM)
inactive: viability, T/C (second compound 0.0316 µM, first compound 0.0316 µM) 90.6% | viability, T/C (second compound 0.0316 µM, first compound 0.1 µM) 113% | viability, T/C (second compound 0.0316 µM, first compound 0.316 µM) 94.6% | viability, T/C (second compound 0.0316 µM, first compound 1 µM) 81.5% | viability, T/C (second compound 0.0316 µM, first compound 3.16 µM) 108% | viability, T/C (second compound 0.0316 µM, first compound 10 µM) 51.5% | viability, T/C (second compound 0.1 µM, first compound 0.0316 µM) 80.4% | viability, T/C (second compound 0.1 µM, first compound 0.1 µM) 83.9% | viability, T/C (second compound 0.1 µM, first compound 0.316 µM) 78.7% | viability, T/C (second compound 0.1 µM, first compound 1 µM) 88% | viability, T/C (second compound 0.1 µM, first compound 3.16 µM) 97.6% | viability, T/C (second compound 0.1 µM, first compound 10 µM) 45.7% | viability, T/C (second compound 0.316 µM, first compound 0.0316 µM) 69.3% | viability, T/C (second compound 0.316 µM, first compound 0.1 µM) 75.5% | viability, T/C (second compound 0.316 µM, first compound 0.316 µM) 60.7% | viability, T/C (second compound 0.316 µM, first compound 1 µM) 69.8% | viability, T/C (second compound 0.316 µM, first compound 3.16 µM) 94.6% | viability, T/C (second compound 0.316 µM, first compound 10 µM) 38.9% | viability, T/C (second compound 1 µM, first compound 0.0316 µM) 66.3% | viability, T/C (second compound 1 µM, first compound 0.1 µM) 63.2% | viability, T/C (second compound 1 µM, first compound 0.316 µM) 65.4% | viability, T/C (second compound 1 µM, first compound 1 µM) 56.6% | viability, T/C (second compound 1 µM, first compound 3.16 µM) 70.5% | viability, T/C (second compound 1 µM, first compound 10 µM) 27.5% | viability, T/C (second compound 3.16 µM, first compound 0.0316 µM) 51% | viability, T/C (second compound 3.16 µM, first compound 0.1 µM) 54.6% | viability, T/C (second compound 3.16 µM, first compound 0.316 µM) 48% | viability, T/C (second compound 3.16 µM, first compound 1 µM) 49.1% | viability, T/C (second compound 3.16 µM, first compound 3.16 µM) 69% | viability, T/C (second compound 3.16 µM, first compound 10 µM) 29.7% | viability, T/C (second compound 10 µM, first compound 0.0316 µM) 52.3% | viability, T/C (second compound 10 µM, first compound 0.1 µM) 57.2% | viability, T/C (second compound 10 µM, first compound 0.316 µM) 61% | viability, T/C (second compound 10 µM, first compound 1 µM) 56% | viability, T/C (second compound 10 µM, first compound 3.16 µM) 66.8% | viability, T/C (second compound 10 µM, first compound 10 µM) 19.5%
4.08 µM: IC50 (second compound 10 µM)
8.85 µM: IC50 (second compound 0.1 µM)
3.87 µM: IC50 (second compound 3.16 µM)
> 10 µM: IC50 (second compound 0.0316 µM)

NC1c2ccccc2OC12CCN(c1cnc3c(N4CCCc5ncccc54)n[nH]c3n1)CC2 (centres undefined) + CCn1c(-c2cc(N3CCN(C)CC3)cnc2C(C)OC)c2c3cc(ccc31)-c1csc(n1)CC(NC(=O)C1CC1C)C(=O)N1CCCC(N1)C(=O)OCC(C)(C)C2
inactive: viability, T/C (second compound 0.000949 µM, first compound 0.0316 µM) 58.2% | viability, T/C (second compound 0.000949 µM, first compound 0.1 µM) 40.6% | viability, T/C (second compound 0.000949 µM, first compound 0.316 µM) 20.6% | viability, T/C (second compound 0.000949 µM, first compound 1 µM) 24.9% | viability, T/C (second compound 0.000949 µM, first compound 3.16 µM) 21.2% | viability, T/C (second compound 0.000949 µM, first compound 10 µM) 8.53% | viability, T/C (second compound 0.003 µM, first compound 0.0316 µM) 42.9% | viability, T/C (second compound 0.003 µM, first compound 0.1 µM) 26.4% | viability, T/C (second compound 0.003 µM, first compound 0.316 µM) 18.9% | viability, T/C (second compound 0.003 µM, first compound 1 µM) 21.3% | viability, T/C (second compound 0.003 µM, first compound 3.16 µM) 18.4% | viability, T/C (second compound 0.003 µM, first compound 10 µM) 6.57% | viability, T/C (second compound 0.00949 µM, first compound 0.0316 µM) 31.6% | viability, T/C (second compound 0.00949 µM, first compound 0.1 µM) 19.2% | viability, T/C (second compound 0.00949 µM, first compound 0.316 µM) 18.1% | viability, T/C (second compound 0.00949 µM, first compound 1 µM) 15.8% | viability, T/C (second compound 0.00949 µM, first compound 3.16 µM) 13.4% | viability, T/C (second compound 0.03 µM, first compound 0.0316 µM) 23.1% | viability, T/C (second compound 0.03 µM, first compound 0.1 µM) 18.1% | viability, T/C (second compound 0.03 µM, first compound 0.316 µM) 15.7% | viability, T/C (second compound 0.03 µM, first compound 1 µM) 15.2% | viability, T/C (second compound 0.03 µM, first compound 3.16 µM) 12.8% | viability, T/C (second compound 0.0949 µM, first compound 0.0316 µM) 20.1% | viability, T/C (second compound 0.0949 µM, first compound 0.1 µM) 16.8% | viability, T/C (second compound 0.0949 µM, first compound 0.316 µM) 14.8% | viability, T/C (second compound 0.0949 µM, first compound 1 µM) 13.6% | viability, T/C (second compound 0.0949 µM, first compound 3.16 µM) 11.8% | viability, T/C (second compound 0.3 µM, first compound 0.0316 µM) 15.6% | viability, T/C (second compound 0.3 µM, first compound 0.1 µM) 15.4% | viability, T/C (second compound 0.3 µM, first compound 0.316 µM) 14.4% | viability, T/C (second compound 0.3 µM, first compound 1 µM) 10.6%
0.0508 µM: IC50 (second compound 0.000949 µM)
< 0.0316 µM: IC50 (second compound 0.003 µM) | IC50 (second compound 0.00949 µM) | IC50 (second compound 0.03 µM) | IC50 (second compound 0.0949 µM) | IC50 (second compound 0.3 µM)
active: viability, T/C (second compound 0.00949 µM, first compound 10 µM) 7.23% | viability, T/C (second compound 0.03 µM, first compound 10 µM) 7.77% | viability, T/C (second compound 0.0949 µM, first compound 10 µM) 7.6% | viability, T/C (second compound 0.3 µM, first compound 3.16 µM) 9.17% | viability, T/C (second compound 0.3 µM, first compound 10 µM) 4.89%
